The text below walks through data of patent publication US20260159474A1, “Aminoindane Compounds and Compositions and Methods of Their Therapeutic Use” (Solvonis Therapeutics Ireland Holdings Limited, priority 2021, published 2026).

Some results are limits rather than exact numbers.

In this assay the test system is DA release in rat synaptosomes. Description: Dopamine release assay in rat striatal synaptosomes. The note with it: % of maximal release with 50 μM MDMA, n=2. It counts as biochemical. The protocol:
Methods-Evaluation of Monoamine Release: The potency of therapeutic compounds for stimulating DA release was measured by an endpoint release filtration assay in a 96-well format using rat synaptosomes, essentially as described by Sandtner et al. (Mol Pharmacol., 2016; 89(1):165-75.) and Baumann et al. (Neuropsychopharmacol, 2013; 38:552-562.) with some variations. One male rat was euthanized, and striatum/cortex regions were dissected over ice. The striatum portions were weighed and put in a glass tube containing ice-cold 0.32 M sucrose (dilution 1:24 w/v) for homogenization, while the frontal cortex tissue was diluted in ice-cold 0.32 M sucrose, 1:20 w/v. Tissues were homogenized and centrifuged for 10 mins at 1000×g. The two supernatants from striatum and cortex (crude synaptosomes) were retained on ice until use.
Test compounds were then serially diluted 1:4 in neat DMSO as concentration-response curves (CRC) of 11 points. To each well of a 2-mL 96 deep-well plate (Whatman UNIPLATE 96 well) were added: 2 μL of a concentration-response curve (CRC) of test compounds or 2 μL of DMSO (no-release condition) or 2 μL of MDMA 10 mM solution (final 50 μM, for maximal release), followed by 200 μL/well of complete Krebs-phosphate buffer (126 mM NaCl, 2.4 mM KCl, 0.83 mM CaCl2), 0.8 mM MgCl2, 0.5 mM KH2PO4, 0.5 mM Na2SO4, 11.1 mM glucose, 0.05 mM pargyline, 1 mg/mL ascorbic acid, freshly added, pH 7.4), containing 1 μM reserpine to block vesicular uptake of substrate. Desipramine (100 nM) and citalopram (100 nM) were also added to the release assay buffer in order to inhibit NET and SERT uptake, respectively. The final compound dilution, then, was 1:200 in 0.5% DMSO.
3H-Dopamine was added to the tube containing the crude striatal synaptosomes preparation, diluted 1:20 (v/v) in complete Krebs-phosphate buffer, and was incubated at RT and gently mixed for 60 minutes. Then, 200 μL/well of 3H-DA loaded synaptosomes were dispensed to the compound plate (final 400 μL/well), and the release reaction proceeded for an additional 15 minutes at RT. The release was terminated by vacuum filtration and washing three times with 1 mL of saline solution (NaCl 0.9%) at RT. The retained radioactivity was counted in a scintillation counter after the addition of 50 μL/well Microscint-20.
The raw data (cpm) from residual radioactivity onto the filter were elaborated for the determination of pEC50/EC50 values. Specifically, the compound effect was expressed as the percent of maximal release obtained with 50 μM MDMA (100% release) in comparison to vehicle (0.5% DMSO, 0% release). Both MDMA and D-amphetamine in CRC were used as internal controls in each release experiment. In each plate, for both 0% and 100% of release, the signal window was monitored and Z′ calculations were determined using the raw data of four replicates. 5-HT release was calculated in an identical fashion, except that 5 nM 3H-serotonin was added to crude cortex synaptosomes preparation diluted 1:13 (v/v) in complete Krebs-phosphate buffer containing 1 μM Reserpine, 100 nM GBR12909 and 100 nM nomifensine to block vesicular, DAT, and NET uptake, respectively. Synaptosomes were then loaded with 3H-5HT for 60 minutes at RT. After dispensing loaded synaptosomes onto a compound plate (200 μL/well), the release reaction proceeded for an additional 15 minutes. Stop by filtration, counting, and data elaboration were performed as described for DA release. Compounds were tested in duplicate (n=2).
Take `COC(=O)c1ccc2c(c1)CC(N)C2` (stereo not drawn) [CMP-405, 2-aminoindane-5-methylcarboxylate]: the “DA Release (pEC50)” value stood at 5.6.
As to `COC(=O)c1cc2c(cc1OC)CC(N)C2` (stereo not drawn) [CMP-401], the “DA Release (pEC50)” value was less than 4.0.
`COc1ccc2c(c1)CC(N)C2` (stereo not drawn) [MEAI, 5-methoxy-2-aminoindane]: the “DA Release (pEC50)” value is 5.4.
As to `COc1cc2c(cc1C)CC(N)C2` (stereo not drawn) [MMAI, 5-methoxy-6-methyl-2-aminoindane], the “DA Release (pEC50)” value worked out at 4.6.
Consider `COC(=O)COc1ccc2c(c1)CC(N)C2` (stereo not drawn) [CMP-402], for which the “DA Release (pEC50)” value was less than 4.0.
As to `CNC(C)Cc1ccc2c(c1)OCO2` (stereo not drawn) [MDMA], the “DA Release (pEC50)” value is listed as 6.6.
